Test results from patent US10112935B2, “Indazolyl thiadiazolamines and related compounds for inhibition of Rho-associated protein kinase and the treatment of disease” (Lycera Corporation, priority 2015, dated 2018).

What was measured:
[1] = biological target: GST-tagged human ROCK1 catalytic domain 1-477 (Homo sapiens (Human), UniProt Q13464); assay: Inhibition of Rho-associated protein kinase isoform 1 (LANCE Ultra ULight-CREBtide FRET kinase assay); assay type: biochemical; conditions: 30 μM was the highest concentration analyzed
Summary of the method: (§1)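 Baculovirus-expressed kinase phosphorylated ULight-CREBtide for 90 min at room temperature before the reaction was stopped with 10 mM EDTA. Phospho-substrate was detected by TR-FRET with 1 nM Europium-anti-phospho-CREB (Ser133) antibody after 60 min at room temperature.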

[2] = biological target: GST-tagged human ROCK2 catalytic domain 1-553 (Homo sapiens (Human), UniProt O75116); assay: Inhibition of Rho-associated protein kinase isoform 2 (LANCE Ultra ULight-CREBtide FRET kinase assay); assay type: biochemical; conditions: for IC50: 30 μM was the highest concentration analyzed; for Selectivity for ROCK2 over ROCK1 (IC50 ROCK1 / IC50 ROCK2): selectivity ROCK2 vs ROCK1
Summary of the method: as §1

Sequence of GST-tagged human ROCK1 catalytic domain 1-477 (Q13464 1-477): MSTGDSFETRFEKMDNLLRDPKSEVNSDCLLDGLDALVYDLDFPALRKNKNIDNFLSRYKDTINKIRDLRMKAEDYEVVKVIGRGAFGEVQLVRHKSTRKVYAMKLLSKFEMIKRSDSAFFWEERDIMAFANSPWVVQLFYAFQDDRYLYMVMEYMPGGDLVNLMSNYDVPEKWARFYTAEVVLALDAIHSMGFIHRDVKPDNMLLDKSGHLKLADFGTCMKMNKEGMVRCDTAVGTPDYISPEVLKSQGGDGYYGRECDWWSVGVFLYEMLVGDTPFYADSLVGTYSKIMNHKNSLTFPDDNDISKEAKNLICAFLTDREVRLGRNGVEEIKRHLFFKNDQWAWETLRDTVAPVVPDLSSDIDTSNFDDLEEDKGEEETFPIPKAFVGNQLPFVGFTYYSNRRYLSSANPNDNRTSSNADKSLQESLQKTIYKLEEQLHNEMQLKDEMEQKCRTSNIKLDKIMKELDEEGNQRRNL
Sequence of GST-tagged human ROCK2 catalytic domain 1-553 (O75116 1-553): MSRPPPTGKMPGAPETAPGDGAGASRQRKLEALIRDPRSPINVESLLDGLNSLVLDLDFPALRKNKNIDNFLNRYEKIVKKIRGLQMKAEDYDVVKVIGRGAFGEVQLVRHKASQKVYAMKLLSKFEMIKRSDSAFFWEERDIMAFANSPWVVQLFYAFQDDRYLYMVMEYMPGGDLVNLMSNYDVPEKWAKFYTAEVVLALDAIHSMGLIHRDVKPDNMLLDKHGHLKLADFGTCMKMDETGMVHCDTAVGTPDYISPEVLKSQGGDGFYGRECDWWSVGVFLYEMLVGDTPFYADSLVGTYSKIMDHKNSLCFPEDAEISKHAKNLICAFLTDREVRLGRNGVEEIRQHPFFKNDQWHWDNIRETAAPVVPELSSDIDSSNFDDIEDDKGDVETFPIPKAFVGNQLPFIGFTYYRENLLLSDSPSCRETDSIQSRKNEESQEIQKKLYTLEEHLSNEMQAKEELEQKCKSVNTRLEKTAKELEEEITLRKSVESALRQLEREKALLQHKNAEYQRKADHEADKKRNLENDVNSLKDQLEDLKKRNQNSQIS

Compound | IC50 [1] [µM] | IC50 [2] [µM] | Selectivity for ROCK2 over ROCK1 (IC50 ROCK1 / IC50 ROCK2) [2]
O=C1Cc2cccc(-c3nnc(Nc4ccc5[nH]ncc5c4Cl)s3)c2N1 [Example 56E] | > 30 | < 1 | >50
Cn1c(C2CCOCC2)nc2c(-c3nnc(Nc4ccc5[nH]ncc5c4)s3)cccc21 [Example 56F] | > 30 | < 1 | >100
Cn1c(C2CC2)nc2c(-c3nnc(Nc4ccc5[nH]ncc5c4)s3)cccc21 [Example 56G] | > 30 | < 1 | >100
Cn1cccc(-c2nnc(Nc3ccc4[nH]ncc4c3Cl)s2)c1=O.O=C(O)C(F)(F)F [Example 56H] | > 30 | < 1 | >100
CCc1c(Nc2nnc(-c3cccc(NC(C)=O)c3)s2)ccc2[nH]ncc12 [Example 75C] | < 1 | < 1 | >5
CN1CCN(C(=O)Nc2ccc(-c3nnc(Nc4ccc5[nH]ncc5c4Cl)s3)cc2)CC1 [Example 75D] | < 1 | < 1 | >5
Clc1c(Nc2nnc(-c3cccc4c3OCCO4)s2)ccc2[nH]ncc12 [Example 75E] | > 30 | > 30 | 
CC(C)(O)CNC(=O)c1cccc(-c2nnc(Nc3ccc4[nH]ncc4c3Cl)s2)c1 [Example 75F] | 1 to 15 | < 1 | >5
Cc1cccc(CNC(=O)c2cccc(-c3nnc(Nc4ccc5[nH]ncc5c4Cl)s3)c2)n1 [Example 75G] | < 1 | < 1 | <5
c1cc(-c2nnc(Nc3ccc4[nH]ncc4c3)s2)cc(N2CCNCC2)c1 [Example 75H] | > 30 | 1 to 15 | >5
Cn1cc(C(=O)Nc2cc(-c3nnc(Nc4ccc5[nH]ncc5c4)s3)ccn2)cn1 [Example 75I] | < 1 | < 1 | <5
Cn1cc(C(=O)Nc2cccc(-c3nnc(Nc4ccc5[nH]nc(Cl)c5c4)s3)c2)cn1 [Example 75J] | > 30 | > 30 | 
CNCc1ccc(C(=O)Nc2cccc(-c3nnc(Nc4ccc5[nH]ncc5c4)s3)c2)cn1 [Example 75K] | < 1 | < 1 | >5
CC(C)NC(=O)COc1cncc(-c2nnc(Nc3ccc4[nH]ncc4c3)s2)c1 [Example 75L] | > 30 |  | >75
O=C(Nc1cccc(-c2nnc(Nc3ccc4[nH]ncc4c3F)s2)c1)c1c[nH]cn1 [Example 75N] | > 30 | > 30 | 
O=[N+]([O-])c1cccc(-c2nnc(Nc3ccc4[nH]ncc4c3)s2)c1 [Example 75O] | 1 to 15 | 1 to 15 | 
CN(C)Cc1cc(-c2ncco2)cc(-c2nnc(Nc3ccc4[nH]ncc4c3Cl)s2)c1 [Example 75P] | 1 to 15 | < 1 | >5
CC1(C)CN=C(c2cccc(-c3nnc(Nc4ccc5[nH]ncc5c4Cl)s3)c2)O1 [Example 75Q] | 1 to 15 | < 1 | >5
Cc1cccc(-c2cccc(-c3nnc(Nc4ccc5[nH]ncc5c4Cl)s3)c2)n1 [Example 75R] | > 30 | < 1 | >100
CC(=O)Nc1cc(CC(=O)O)cc(-c2nnc(Nc3ccc4[nH]ncc4c3Cl)s2)c1 [Example 75S] | < 1 | < 1 | >5
CC(C)(C)c1cn2cccc(-c3nnc(Nc4ccc5[nH]ncc5c4Cl)s3)c2n1 [Example 75T] | > 30 | > 30 | 
CN(c1nnc(-c2cccc(NC(=O)Cc3ccc(F)cc3)c2)s1)c1ccc2[nH]ncc2c1Cl [Example 75U] | > 30 | > 30 | 
Clc1c(Nc2nnc(-c3cccc4c3ncn4CCN3CCOCC3)s2)ccc2[nH]ncc12 [Example 75V] | > 30 | > 30 | 
Nc1nc(-c2nnc(Nc3ccc4[nH]ncc4c3Cl)s2)c[nH]1 [Example 75W] | < 1 | < 1 | <5
NCCS(=O)(=O)Nc1cccc(-c2nnc(Nc3ccc4[nH]ncc4c3)s2)c1 [Example A-1] | 1 to 15 | 1 to 15 | <5
CC(C)NCC(=O)Nc1cncc(-c2nnc(Nc3ccc4[nH]ncc4c3)s2)c1 [Example A-2] | 1 to 15 | < 1 | >5

Compound | IC50 [1] [µM] | IC50 [2] [µM] | Selectivity for ROCK2 over ROCK1 (IC50 ROCK1 / IC50 ROCK2) [2]
CN(C)CC(=O)Nc1cncc(-c2nnc(Nc3ccc4[nH]ncc4c3)s2)c1 [Example A-3] | 1 to 15 | < 1 | <5
O=C(NCC(O)CO)c1cccc(-c2nnc(Nc3ccc4[nH]ncc4c3)s2)c1 (stereo not shown) [Example A-4] | 1 to 15 | 1 to 15 | <5
Cn1cc(C(=O)Nc2cc(-c3nnc(Nc4ccc5[nH]ncc5c4)s3)ccc2C(=O)O)cn1 [Example A-5] | < 1 | < 1 | >5
c1cc(-c2nnco2)cc(-c2nnc(Nc3ccc4[nH]ncc4c3)s2)c1 [Example A-6] | > 30 | > 30 | <5
CC(C)NC(=O)COc1cncc(-c2nnc(Nc3ccc4[nH]ncc4c3)s2)c1 [Example A-7] | > 30 | < 1 | >50
CCS(=O)(=O)Nc1cccc(-c2nnc(Nc3ccc4[nH]ncc4c3)s2)c1 [Example A-8] | > 30 | 1 to 15 | >5
O=C(O)c1cccc(-c2nnc(Nc3ccc4[nH]ncc4c3)s2)c1 [Example A-9] | 15 to 30 | 1 to 15 | >5
CN(CC(O)CO)C(=O)c1cccc(-c2nnc(Nc3ccc4[nH]ncc4c3)s2)c1 (stereo not shown) [Example A-10] | 15 to 30 | 1 to 15 | <5
Cn1cc(C(=O)Nc2cccc(-c3nnc(Nc4ccc5[nH]ncc5c4Cl)s3)c2)cn1 [Example A-11] | > 30 | < 1 | >100
OCCN(c1ccc2[nH]ncc2c1)c1nnc(-c2cnccn2)s1 [Example A-12] | > 30 | > 30 | <5
Nc1cncc(-c2nnc(Nc3ccc4[nH]ncc4c3)s2)n1 [Example A-13] | > 30 | 1 to 15 | >5
CCS(=O)(=O)Nc1cncc(-c2nnc(Nc3ccc4[nH]ncc4c3)s2)c1 [Example A-14] | 1 to 15 | 1 to 15 | >5
Cn1cnc2c(-c3nnc(Nc4ccc5[nH]ncc5c4)s3)cccc21 [Example A-15] | < 1 | < 1 | <5
CCn1cc(C(=O)Nc2cccc(-c3nnc(Nc4ccc5[nH]ncc5c4)s3)c2)cn1 [Example A-16] | < 1 | < 1 | >5
c1cc(-c2cn[nH]c2)cc(-c2nnc(Nc3ccc4[nH]ncc4c3)s2)c1 [Example A-17] | > 30 | < 1 | >100
CS(=O)(=O)Nc1cncc(-c2nnc(Nc3ccc4[nH]ncc4c3)s2)c1 [Example A-18] | 1 to 15 | 1 to 15 | <5
CS(=O)(=O)Nc1cccc(-c2nnc(Nc3ccc4[nH]ncc4c3)s2)c1 [Example A-19] | > 30 | < 1 | >100
O=C(Nc1cccc(-c2nnc(Nc3ccc4[nH]ncc4c3)s2)c1)c1cnn(CCO)c1 [Example A-20] | > 30 | < 1 | >100
COc1cccc(-c2nnc(N(CCO)c3ccc4[nH]ncc4c3)s2)c1 [Example A-21] | 15 to 30 | 15 to 30 | <5
O=C(O)COc1cccc(-c2nnc(Nc3ccc4[nH]ncc4c3)s2)c1 [Example A-22] | 1 to 15 | 1 to 15 | >5
CC(C)NC(=O)COc1cccc(-c2nnc(Nc3ccc4[nH]ncc4c3)s2)c1 [Example A-23] | > 30 | < 1 | >50
Nc1cncc(-c2nnc(Nc3ccc4[nH]ncc4c3)s2)c1 [Example A-24] | < 1 | < 1 | <5
c1cnc(-c2nnc(Nc3ccc4[nH]ncc4c3)s2)cn1 [Example A-25] | > 30 | 1 to 15 | >5
c1cc(-c2cnco2)cc(-c2nnc(Nc3ccc4[nH]ncc4c3)s2)c1 [Example A-26] | > 30 | > 30 | <5
Cn1cc(C(=O)Nc2ccc(-c3nnc(Nc4ccc5[nH]ncc5c4)s3)cc2)cn1 [Example A-27] | > 30 | > 30 | <5
CC1CCN(C(=O)Nc2cccc(-c3nnc(Nc4ccc5[nH]ncc5c4)s3)c2)C1 (stereo not shown) [Example A-28] | < 1 | < 1 | >5
